Source: patent publication US20260226060A1, “SALTS AND CRYSTALLINE FORMS OF COMPOUND A, METHODS OF PREPARATION, AND USES THEREOF” (SHENZHEN NEWDEL BIOTECH CO., LTD., priority 2023, published 2026)

Columns and labels:
Type in all cases: physicochemical
[1] = Solubility analysis in biological solvents (SGF, FaSSIF, FeSSIF) and water, with pH and XRPD of residual solid; conditions: for Solubility: 37° C.
Procedure: (§1) HPLC analysis was performed by using an Agilent HPLC 1260 series instrument and the HPLC methods used for solubility and stability determinations were shown in Tables 33 and 34, respectively.

[2] = IC analysis of residual solid of phosphate crystalline form I (PO4 content, dissociation)
Procedure: IC analysis of the salts was performed by using a Thermo ICS-6000 instrument.

[3] = Dynamic vapor sorption (DVS) hygroscopicity
Procedure: The water vapor sorption/desorption data of the samples were collected on a dynamic vapor sorption instrument (proUmid GmbH & Co. KG, Germany). Approximately 50-70 mg of sample was placed in a sample pan previously tared and the weight of the sample was measured accurately.

[4] = Short-term physical stability of anhydrous crystal forms (40° C./75% RH, open, 1 day; XRPD)
Source text: In addition to the mesylate crystalline form I, the other anhydrous crystalline forms were stable under high humidity conditions.

[5] = Solid state stability at 60° C. (closed) and 40° C./75% RH (open), XRPD and HPLC purity
Procedure: (closed) and 40° C./75 RH (open) for 14 days, XRPD analysis and purity analysis were performed at various points of time, and solid-state stability was evaluated.
as §1

Which results are given for `Cc1c(C#Cc2cnc3ccc(N4CCC(O)CC4)nn23)cccc1C(=O)Nc1cc(Cl)cc(C(F)(F)F)c1` [Phosphate crystalline form I]?
pH in solubility analysis ([1]; FaSSIF (medium pH 6.5), 0.5 h): 5.7; pH in solubility analysis ([1]; FaSSIF (medium pH 6.5), 2 h): 5.5; pH in solubility analysis ([1]; FaSSIF (medium pH 6.5), 24 h): 5.5; solubility at 24 h ([1]; FaSSIF, 37 °C, pH 6.5, fassif, thermodynamic from solid, 24 h, target 5 mg/mL): 22 µg/mL; XRPD of residual solid in solubility analysis ([1]; FaSSIF, 0.5 h): Form 1; Solubility ([1]; FaSSIF, 0.5 h, target 5 mg/mL): 57 µg/mL; Solubility ([1]; FaSSIF, 0.5 h, target 5 mg/mL, listed as phosphate crystalline form I): 57 µg/mL; XRPD of residual solid in solubility analysis ([1]; FaSSIF, 0.5 h, listed as phosphate crystalline form I): Newform 1; Solubility ([1]; FaSSIF, 2 h, target 5 mg/mL): 48 µg/mL; Solubility ([1]; FaSSIF, 2 h, target 5 mg/mL, listed as phosphate crystalline form I): 48 µg/mL; XRPD of residual solid in solubility analysis ([1]; FaSSIF, 24 h): Form 2; XRPD of residual solid in solubility analysis ([1]; FaSSIF, 24 h, listed as phosphate crystalline form I): new form 2; pH in solubility analysis ([1]; FeSSIF (medium pH 5.0), 0.5 h): 4.9; pH in solubility analysis ([1]; FeSSIF (medium pH 5.0), 2 h): 4.9; pH in solubility analysis ([1]; FeSSIF (medium pH 5.0), 24 h): 5.0; XRPD of residual solid in solubility analysis ([1]; FeSSIF, 0.5 h): Form 1; Solubility ([1]; FeSSIF, 0.5 h, target 5 mg/mL): 1029 µg/mL; Solubility ([1]; FeSSIF, 0.5 h, target 5 mg/mL, listed as phosphate crystalline form I): 1029 µg/mL; XRPD of residual solid in solubility analysis ([1]; FeSSIF, 0.5 h, listed as phosphate crystalline form I): Newform 1; Solubility ([1]; FeSSIF, 2 h, target 5 mg/mL): 1175 µg/mL; Solubility ([1]; FeSSIF, 2 h, target 5 mg/mL, listed as phosphate crystalline form I): 1175 µg/mL; XRPD of residual solid in solubility analysis ([1]; FeSSIF, 24 h): Form 1; Solubility ([1]; FeSSIF, 24 h, target 5 mg/mL): 1948 µg/mL; Solubility ([1]; FeSSIF, 24 h, target 5 mg/mL, listed as phosphate crystalline form I): 1948 µg/mL; pH in solubility analysis ([1]; SGF (medium pH 1.2), 0.5 h): 1.2; pH in solubility analysis ([1]; SGF (medium pH 1.2), 2 h): 1.4; pH in solubility analysis ([1]; SGF (medium pH 1.2), 24 h): 1.2; Solubility ([1]; SGF, 0.5 h, target 5 mg/mL): <LOD; Solubility ([1]; SGF, 0.5 h, target 5 mg/mL, listed as phosphate crystalline form I): <LOD/<LOD/; Solubility ([1]; SGF, 2 h, target 5 mg/mL): <LOD; Solubility ([1]; SGF, 2 h, target 5 mg/mL, listed as phosphate crystalline form I): <LOD/<LOD/; XRPD of residual solid in solubility analysis ([1]; SGF, 24 h): amorphous; Solubility ([1]; SGF, 24 h, target 5 mg/mL): <LOD; XRPD of residual solid in solubility analysis ([1]; SGF, after 2 h): amorphous; pH in solubility analysis ([1]; water (medium pH 6.6), 0.5 h): 2.8; pH in solubility analysis ([1]; water (medium pH 6.6), 2 h): 2.7; pH in solubility analysis ([1]; water (medium pH 6.6), 24 h): 2.6; Solubility ([1]; water, 0.5 h, target 5 mg/mL): <LOD; Solubility ([1]; water, 0.5 h, target 5 mg/mL, listed as phosphate crystalline form I): <LOD/<LOD/; Solubility ([1]; water, 2 h, target 5 mg/mL): <LOD; Solubility ([1]; water, 2 h, target 5 mg/mL, listed as phosphate crystalline form I): <LOD/<LOD/; Solubility ([1]; water, 24 h, target 5 mg/mL): <LOD; XRPD pattern of the residual solid in water ([1]; water, time not stated): an additional peak at 160 (20); dissociation of salt in solubility media (IC of residual solids) ([2]; FaSSIF and FeSSIF): dissociated to free base; Dissociation degree ([2]; FaSSIF, 0.5 h): 91%; PO4^3− in residual solid ([2]; FaSSIF, 0.5 h): 0.1 eq.; XPRD Results Dry sample of residual solid ([2]; FaSSIF, 0.5 h): Amorphous; XPRD Results Wet sample of residual solid ([2]; FaSSIF, 0.5 h): Form 1; Dissociation degree ([2]; FaSSIF, 2 h): 97%; PO4^3− in residual solid ([2]; FaSSIF, 2 h): 0.03 eq.; XPRD Results Dry sample of residual solid ([2]; FaSSIF, 2 h): Amorphous; XPRD Results Wet sample of residual solid ([2]; FaSSIF, 2 h): Form 1; Dissociation degree ([2]; FaSSIF, 24 h): >99%; PO4^3− in residual solid ([2]; FaSSIF, 24 h): <0.006 eq.; XPRD Results Dry sample of residual solid ([2]; FaSSIF, 24 h): Form 3; XPRD Results Wet sample of residual solid ([2]; FaSSIF, 24 h): Form 2; Dissociation degree ([2]; FeSSIF, 0.5 h): >99%; PO4^3− in residual solid ([2]; FeSSIF, 0.5 h): <0.006 eq.; XPRD Results Dry sample of residual solid ([2]; FeSSIF, 0.5 h): Amorphous; XPRD Results Wet sample of residual solid ([2]; FeSSIF, 0.5 h): Form 1; Dissociation degree ([2]; FeSSIF, 24 h): 100%; PO4^3− in residual solid ([2]; FeSSIF, 24 h): 0 eq.; XPRD Results Dry sample of residual solid ([2]; FeSSIF, 24 h): Amorphous; XPRD Results Wet sample of residual solid ([2]; FeSSIF, 24 h): Form 1; crystalline form after DVS analysis (XRPD) [3]: remained unchanged; hygroscopicity (DVS) [3]: slightly hygroscopic; DVS The weight gains by vapor sorption % ([3]; 80% RH): 1.3%; DVS The weight gains by vapor sorption % ([3]; 90% RH): 1.6%; DVS The weight gains by vapor sorption % ([3]; 90% RH, listed as phosphate crystalline form I): ~1.6%; XPRD Results after short-term physical stability [4]: unchanged; Purity in stability evaluation ([5]; 0 d): 98.78 Area %; Solid state stability-14 days ([5]; 60° C./Closed and 40° C./75% RH (Open), 14 days): physically and chemically stable; Purity in stability evaluation ([5]; 7 d-40° C./75% RH): 98.78 Area %; XRPD in stability evaluation ([5]; 7 d-40° C./75% RH): unchanged; Purity in stability evaluation ([5]; 7 d-60° C./capped): 98.78 Area %; XRPD in stability evaluation ([5]; 7 d-60° C./capped): unchanged; Purity in stability evaluation ([5]; 14 d-40° C./75% RH): 98.78 Area %; XRPD in stability evaluation ([5]; 14 d-40° C./75% RH): unchanged; Purity in stability evaluation ([5]; 14 d-60° C./capped): 98.78 Area %; XRPD in stability evaluation ([5]; 14 d-60° C./capped): unchanged
